Data taken from patent US6020121A (priority 1996, dated 2000).
Entries after “also recorded” stand apart in the source; their conditions may differ. Where a SMILES comes first, the peptide text is derived from it. The star is where a group is joined. Cbz = O=C(OCc1ccccc1)*; Bz = O=C(c1ccccc1)*

What was measured:
[1] = test system: Staphylococcus aureus strain 8325-4/pMP25; test: Growth in presence of test compounds in the Agr screen; conditions: compared to untreated Agr+ cells; screen at 10 μg/ml final, 6 hours, 35° C.
Agr P3 promoter = test: Agr P3-β-lactamase fusion screen: β-lactamase activity; conditions: for Status from algorithm: Table 3; for β-Lactamase inhibition: corrected for cell density, screen at 10 μg/ml final, 6 hours, 35° C., negative = induction; for Behaviour in the P3-β-lactamase screen (in words): text
[2] = test system: B. subtilis strain 168 sporulation; test: Sporulation; type: cell-based, Bacillus subtilis; conditions: B. subtilis strain 168, compared to untreated controls
Source text: Sporulation: Sporulation is a well-characterized event in many organisms, including Bacillus subtilis (spoIIJ/spo0A or spoIIJ/spo0F, Losick et al., Annu. Rev. Genet. 20:625-669 (1986); Smith, The initiation of sporulation,pp. 185-210, In I. Smith et al. eds., Regulation of procaryotic development, American Society for Microbiology, Washington, D.C. (1989)). It can be induced in various media (Leighton and Doi, J. Biol. Chem. 246:3189-3195 (1971); Piggot and Curtis, J. Bacteriol. 169:1260-1266 (1987)), and can be easily assayed (Nicholson and Setlow, Sporulation, germination, and outgrowth, pp. 391-429, In C. R. Harwood and S. M. Cutting eds., Molecular biological methods for Bacillus, John Wiley and Sons, Ltd., Chichester, West Sussex, England (1990)). Briefly, by heating the cells to 80-85° C. for 15-20 min, undifferentiated cells are killed while spores survive. Therefore, by determining the difference in viable cell count of control cultures versus heat treated cultures, it is possible to calculate the percent sporulation for a given culture or condition. Compounds that inhibit the signal transduction system responsible for the induction of sporulation will lower the viable cell count of the heat treated culture.

RNAIII [3] = test: RNAIII Northern Blot
protein A = test: Protein A expression immunoblot; type: cell-based, Staphylococcus aureus; conditions: Table 4; relative to Agr- mutant cells
Description: FIG. 18. Immunodetection of staphylococcal protein A in treated and untreated cultures. Cells were grown in presence of compounds 1, 2, or 3 to a similar density (O.D. 600 nm--0.5-0.6). Cells were lysed using lysostaphin prior to separation of cell surface proteins by SDS-PAGE. After electrophoretic transfer of proteins from the gel onto a nitrocellulose membrane, detection of protein A on the blot was possible by using a specific anti-protein A antibody and a second antibody that allowed chemiluminescent detection of immune complexes. The chemiluminescence was captured by autoradiography.
Protein A. Protein A expression is assayed by immunoblots of SDS-Page separated total cell proteins (Patel et al., Infection and Immunity 55:3103-3110 (1987)).

RNAIII [4] = test: RNAIII Northern Blot in clinical strains; type: cell-based, Staphylococcus aureus; conditions: several clinical strains of S. aureus (no. 212, 213, 215, and 217), FIG. 20
Source text: FIG. 20. Northern Blots for RNAIII detection in several clinical strains of S. aureus (no. 212, 213, 215, and 217) grown in the presence of Compound 10. Untreated strain 8325-4 (Agr+) is also represented and acts as a control to show the maximal amounts of RNAIII also detected in all clinical strains grown without the test compound.

[5] = test system: S. typhimurium chemotaxis; test: Chemotaxis (swarm agar plates); type: cell-based, Salmonella typhimurium; conditions: S. typhimurium on ribose-containing swarm agar plates
Source text: Chemotaxis: Motility has been studied in a variety of bacteria. The molecular mechanisms of motility have been best characterized in E. coli and S. typhimurium but analogs of the molecular components have been detected in both Gram-negative and Gram-positive organisms (Morgan et al., J. Bacteriol. 175:133-140 (1993)). A two-component regulatory system composed of either cheA/cheY or cheA/cheB (Stewart and Dahlquist, Chem. Rev. 87:997-1025 (1987); MacNab, Motility and Chemotaxis, pp. 732-759, In F. C. Neidhardt, et al., ed., Escherichia coli and Salmonella typhimurium: cellular and molecular biology, American Society for Microbiology, Washington, D.C. (1987)), is central to the ability of these organisms to detect and respond appropriately to chemical substances. Such response can be detected on minimal swarm agar plates containing a chemoattractant (sugars or amino acids) (J. S. Parkinson, J. Bacteriol. 126:758-770 (1976)), or a capillary assay system, in which chemoattractant is placed in a capillary tube and immersed in a liquid bacterial culture. Bacteria capable of chemotaxis will swim into the capillary and can be detected by performing viable cell counts (Adler, J. Gen. Microbiol. 74:77-91 (1973)). […]

alpha-hemolysin = type: cell-based, Staphylococcus aureus
Staphylococcus aureus = test: Mucin-enhanced murine peritonitis model; type: in vivo, mice (Balb/c); conditions: challenge dose of 10^10 cfu; 3.15 mg/kg

| Compound | Growth [1] | Status from algorithm (Agr P3 promoter) | β-Lactamase inhibition (Agr P3 promoter) | other results |
| --- | --- | --- | --- | --- |
| C=C(C)C=CCC1C(C)(O)CCC2C(C)(C)CCCC21C (stereo not shown) [Compound 1] | 105% | Active | 75% | – |
| CC(=O)OC1CCC2(C)C(CC(=O)C3(C)C2CCC2(C)C(c4ccoc4)OC(=O)C4OC423)C1(C)C (stereo not shown) [Compound 2] | 122% | Active | 84% | – |
| CC(=O)OC1CC2C(C)(C)CCCC2(C)C2CCC3(C)C(=CC(=O)OC3c3ccoc3)C12C (stereo not shown) [Compound 3] | 70% | GR and Active | 83% | decrease in percent sporulation [2]: more than 50% |
| CC(=O)OC1CCC2(C)C(CCC3C4CC5OC6(CCC(C)CO6)C(C)C5C(C)=C4CC32)C1 (stereo not shown) [Compound 6] | 72% | GR and Inducer | -111% | Behaviour in the P3-β-lactamase screen (in words) (Agr P3 promoter): enhance the production of β-lactamase; also recorded: showed inducer rather than inhibitor activity; Behaviour in the P3-β-lactamase screen (in words) (Agr P3 promoter; listed as compound 6): increased activity of the β-lactamase reporter; RNAIII production (in words) (RNAIII [3]; FIGS. 14 and 15): allowed overexpression of RNAIII; RNAIII production (in words) (RNAIII [3]; FIGS. 14 and 15, listed as compound 6): marked increase in RNAIII; Protein A expression (protein A): [+] |
| CC(C)CC(NC(=O)OCc1ccccc1)C(=O)NC(Cc1ccc(O)cc1)C(N)=O (stereo not drawn) [Compound 7] (Cbz-Leu-Tyr-NH2; configuration not given here) | 103% | Active | 87% | – |
| CC(C)CC(NC(=O)c1ccccc1)C(=O)NC(Cc1ccc(O)cc1)C(N)=O (stereo not drawn) [Compound 8] (Bz-Leu-Tyr-NH2; configuration not given here) | 101% | Active | 84% | – |
| CCCc1c(C(=O)Nc2cccc(C(F)(F)F)c2)cnn1-c1ccccc1 [Compound 9] | 91% | Active | 86% | – |
| O=C(Nc1ccccc1)OC(Cc1ccccc1)C(F)(F)F (stereo not shown) [Compound 10] | 107% | Active | 84% | RNAIII expression in clinical strains (in words) (RNAIII [4]): greatly reduced |
| CC(CS)=NOC(=O)c1c(-c2ccccc2)noc1C [Compound 11] | 104% | Active | 77% | chemotaxis effect (in words) [5]: deregulated chemotaxis and enhanced swarm diameters of S. typhimurium; also recorded: not a chemi-attractant or -repellant itself |
| Cc1cc(C(F)(F)F)cc(N(C)NC2OC(=O)c3ccccc32)n1 (stereo not shown) [Compound 12] | 124% | Active | 76% | – |
| Cc1ccc(NN=C(C#N)C(=O)c2cc(C)nn2C(C)(C)C)cc1 [Compound 13] | 111% | Active | 75% | – |
| O=S(=O)(Nc1cc(C(F)(F)F)cc(C(F)(F)F)c1)c1cccc2nsnc12 [Compound 14] | 94% | Active | 77% | decrease in percent sporulation [2]: more than 50% |
| C=C1C(=O)OC2CC1C(OC(C)=O)CC(C)=CCCC(C)=CCCC2(C)O (stereo not shown) [Compound 15] | 101% | Active | 76% | – |
| O=C(O)/C=C/c1ccc(Sc2ccc(Br)cc2)c([N+](=O)[O-])c1 [Compound 16] | 106% | Active | 78% | – |
| CN(C)/C=C/C(=O)c1sc(SCc2ccc(Cl)cc2)c2c1CC(C)(C)CC2=O [Compound 17] | 87% | Active | 83% | – |
| O=C1OC(c2cccnc2Sc2ccc(Cl)cc2)=NC1=Cc1ccc(C(F)(F)F)cc1 [Compound 18] | 89% | Active | 75% | – |
| CCCCCCCCCCCC(=O)OCC(O)CO (stereo not shown) [GML, Glycerol monolaureate, reference compound] | – | – | – | Behaviour in the P3-β-lactamase screen (in words) (Agr P3 promoter): did not qualify as a hit in the screen; RNAIII production (in words) (RNAIII [3]; FIGS. 14 and 15): showed no effect on RNAIII; also recorded: has no effect on RNAIII production |
| O=C(O)c1cn(C2CC2)c2cc(N3CCNCC3)c(F)cc2c1=O [ciprofloxacin, reference compound] | – | – | – | Behaviour in the P3-β-lactamase screen (in words) (Agr P3 promoter): do not behave as hits; alpha-hemolysin activity (in words) (alpha-hemolysin): did not inhibit alpha-hemolysin activity |
| CN[C@H](CC(C)C)C(=O)N[C@H]1C(=O)N[C@@H](CC(N)=O)C(=O)N[C@H]2C(=O)N[C@H]3C(=O)N[C@H](C(=O)N[C@H](C(=O)O)c4cc(O)cc(O)c4-c4cc3ccc4O)[C@H](O)c3ccc(c(Cl)c3)Oc3cc2cc(c3O[C@@H]2O[C@H](CO)[C@@H](O)[C@H](O)[C@H]2O[C@H]2C[C@](C)(N)[C@H](O)[C@H](C)O2)Oc2ccc(cc2Cl)[C@H]1O [vancomycin] | – | – | – | treatment of infection (in words) (Staphylococcus aureus): treatable; Behaviour in the P3-β-lactamase screen (in words) (Agr P3 promoter): do not behave as hits; alpha-hemolysin activity (in words) (alpha-hemolysin): did not inhibit alpha-hemolysin activity |
